Results reported in US7008633B2 (priority 2000, dated 2006).
Counter-ions that a name gives are not always drawn. Numbered stars: 1 amine (or outer) side, 2 acyl side, 3 side chain; on linkers, the order of the positions; unused ones are H or OH. Bridge positions count the residues as written; N and C are the ends. Square brackets hold non-standard residues; d marks the D form. Peptide text beside a SMILES is read from it. I, II: the chains in the order shown. Actinocin(9to1) = Cc1c2oc3c(C)ccc(C(=O)[*:1])c3nc-2c(C(=O)[*:2])c(N)c1=O; NMeV = CN[C@H](C(=O)O)C(C)C; Sar = CNCC(=O)O

Assays:
[1] = in vivo, cited from earlier work
[2] = Blood chemical assay (BUN, serum creatinine) to detect renal toxicity; format: in vivo, rat; conditions: for BUN / SERUM CREATININE: intratumoral 3 MG/KD, breast tumor-bearing rats
Description: The SA-CDDP (0.1 ml; cisplatin dose was 3 mg/kg body weight) was injected directly into the tumors through 27 G needles. In a preferred embodiment, about […] SA is used per injection. Calcium chloride (8% in water) was then injected into the same place to form cisplatin-loaded alginate beads in the tumors. The tumor size was measured to determine the anticancer effect, and the blood chemical assay (blood urea nitrogen [BUN] and serum creatinine) were performed to detect renal toxicity.
On day 40, BUN in five experimental rats and five healthy rats (control) were 18.30±1.51 mg/dl and 17.88±2.24 mg/dl, respectively. There was no statistical significance (p>0.05) between the two. Serum creatinine levels were the same as in both experimental and control rats (0.6 mg/dl).

[3] = In vitro slow release of cisplatin from alginate beads; format: physicochemical; conditions: incubated in PBS at 37° C.
Description: To study in vitro slow release of an anticancer drug from a polymer, the anticancer drug cisplatin and the polymer sodium alginate were tested for slow release of the drug. Cisplatin-loaded alginate beads (SA-CDDP) were formed instantly and then incubated in phosphate-buffered saline (PBS) in tubes at 37° C. Cisplatin was completely released from the alginate beads in 15 hours, which is considerably slower than the release time (within 2.5 hours) of cisplatin powder only (control) (FIG. 1).

multiple myeloma = conditions: oral administration; cited from earlier work
[4] = in vivo; cited from earlier work

Cc1c2oc3c(C)ccc(C(=O)N[C@@H]4C(=O)N[C@H](C(C)C)C(=O)N5CCC[C@H]5C(=O)N(C)CC(=O)N(C)[C@@H](C(C)C)C(=O)O[C@@H]4C)c3nc-2c(C(=O)N[C@@H]2C(=O)N[C@H](C(C)C)C(=O)N3CCC[C@H]3C(=O)N(C)CC(=O)N(C)[C@@H](C(C)C)C(=O)O[C@@H]2C)c(N)c1=O [Actinomycin D] (I: T[dV]P[Sar][NMeV] / II: T[dV]P[Sar][NMeV]; ester I:1-I:C, II:1-II:C; linker I:N-II:N via Actinocin(9to1))
share of the dose excreted intact into the bile [1]: Half of the dose | share of the dose excreted or detected intact in the urine [1]: 10%

[NH2][Pt]([NH2])([Cl])[Cl] [CDDP, cisplatin]
nephrotoxicity ([2]; CDDP intratumorally): a clear nephrotoxicity was observed | BUN ([2]; day 2): 56.21 mg/dL | SERUM CREATININE ([2]; day 2): 1.5 mg/dL | BUN ([2]; day 5): 246.42 mg/dL | SERUM CREATININE ([2]; day 5): 7.03 mg/dL | BUN ([2]; day 7): 152.35 mg/dL | SERUM CREATININE ([2]; day 7): 2.4 mg/dL | BUN ([2]; day 16): 41.75 mg/dL | SERUM CREATININE ([2]; day 16): 0.7 mg/dL | oral absorption ([1]; po): not absorbed orally | time to complete release of cisplatin [3]: ≤ 2.5 h

COc1cccc2c1C(=O)c1c(O)c3c(c(O)c1C2=O)C[C@@](O)(C(C)=O)C[C@@H]3O[C@H]1C[C@H](N)[C@H](O)[C@H](C)O1 [Daunorubicin, 5,12-Naphthacenedione, (8S-cis)-8-acetyl-10-[(3-amino-2,3,6-trideoxy-a-L-lyxo-hexanopyranosyl)oxy]-7,8,9,10-tetrahydro-6,8,11-trihydroxy-10-methoxy-, hydrochloride]
oral absorption ([1]; po): Oral absorption is poor

O=NN(CCCl)C(=O)NC1CCCCC1 [Lomustine, 1-(2-chloro-ethyl)-3-cyclohexyl-1 nitrosourea]
radioactivity excreted in the form of degradation products ([1]; po): about half

N[C@@H](Cc1ccc(N(CCCl)CCCl)cc1)C(=O)O [Melphalan, 4-[bis(2-chloroethyl)amino]-L-phenylalanine]
share of patients with a favorable response (multiple myeloma): about one third to one half

CO[C@@]12[C@H](COC(N)=O)C3=C(C(=O)C(C)=C(N)C3=O)N1C[C@@H]1N[C@@H]12 [Mitomycin]
share of a dose excreted unchanged in the urine [4]: Approximately 10%

CC[C@]1(O)C[C@@H]2CN(CCc3c([nH]c4ccccc34)[C@@](C(=O)OC)(c3cc4c(cc3OC)N(C)[C@H]3[C@@](O)(C(=O)OC)[C@H](OC(C)=O)[C@]5(CC)C=CCN6CC[C@]43[C@@H]65)C2)C1 [Vinblastine]
share of the dose excreted or detected intact in the urine [1]: Approximately 15%
